The target in data set [1] is T1, Poly [ADP-ribose] polymerase 1 (Homo sapiens, UniProt P09874). Kind of data set: Inhibition of PARP1 (unknown origin) at 1 nM preincubated with compound for 10 mins followed by DNA and NAD+ addition and measured after 60 mins by chemiluminescence based envision reader analysis relative to control. Particulars: time 70.0 min.
Data set [2] deals with MDA-MB-436. Briefly: Antiproliferative activity against human MDA-MB-436 cells assessed as inhibition of cell proliferation at 100 nM incubated for 7 days by CCK-8 assay relative to control. The following applies: MDA-MB-436, 168 h, time 7 day. It counts as functional. Background: Tetrazolium dyes change colour on reduction, which living cells bring about.
The subject of data set [3] is MDA-MB-436. Briefly: Antiproliferative activity against human MDA-MB-436 cells assessed as reduction in cell viability incubated for 7 days by CCK-8 assay. It counts as functional, cell-based. Particulars: MDA-MB-436, 168 h.
Data set [4] is described as follows: Clearance in male Balb/c mouse at 1 mg/kg, po measured upto 96 hrs by LC-MS/MS analysis. Particulars: male, Balb/c, in vivo. It counts as ADME, organism-based.
Data set [5] can be described thus: Cmax in male Balb/c mouse at 1 mg/kg, po measured upto 96 hrs by LC-MS/MS analysis. It counts as ADME, organism-based. The following applies: in vivo.
In data set [6] the target is T2, Poly [ADP-ribose] polymerase 2 (Homo sapiens, UniProt Q9UGN5). Kind of data set: Inhibition of PARP2 (unknown origin) preincubated with compound for 10 mins followed by DNA and NAD+ addition and measured after 60 mins by chemiluminescence based envision reader analysis.
T2 sequence (Q9UGN5 whole entry): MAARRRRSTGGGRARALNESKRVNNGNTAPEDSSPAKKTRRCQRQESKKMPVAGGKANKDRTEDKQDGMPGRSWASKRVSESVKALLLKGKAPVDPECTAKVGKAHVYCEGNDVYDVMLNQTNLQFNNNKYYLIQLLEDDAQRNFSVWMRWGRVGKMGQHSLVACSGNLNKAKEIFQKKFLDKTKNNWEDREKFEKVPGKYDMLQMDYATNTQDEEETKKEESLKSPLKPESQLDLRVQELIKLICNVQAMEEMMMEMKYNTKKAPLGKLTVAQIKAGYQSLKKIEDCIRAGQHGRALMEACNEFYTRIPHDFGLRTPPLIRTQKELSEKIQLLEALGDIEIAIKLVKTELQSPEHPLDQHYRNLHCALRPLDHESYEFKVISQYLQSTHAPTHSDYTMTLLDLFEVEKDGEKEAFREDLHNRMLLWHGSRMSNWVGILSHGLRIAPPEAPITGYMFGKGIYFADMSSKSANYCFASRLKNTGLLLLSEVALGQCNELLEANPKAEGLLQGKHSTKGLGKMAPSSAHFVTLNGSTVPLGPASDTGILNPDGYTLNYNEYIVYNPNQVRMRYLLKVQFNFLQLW
A short description of data set [7]: AUC(0 to t) in male Balb/c mouse at 1 mg/kg, po measured upto 96 hrs by LC-MS/MS analysis. Particulars: male, Balb/c, in vivo. It counts as ADME, organism-based.
The target in data set [8] is T1, Poly [ADP-ribose] polymerase 1. Kind of data set: Inhibition of PARP1 (unknown origin) preincubated with compound for 10 mins followed by DNA and NAD+ addition and measured after 60 mins by chemiluminescence based envision reader analysis.
Data set [9] can be described thus: Half life in male Balb/c mouse at 1 mg/kg, po measured upto 96 hrs by LC-MS/MS analysis. The following applies: male, Balb/c, in vivo. It counts as ADME, organism-based.
Data set [10] deals with T2, Poly [ADP-ribose] polymerase 2. Kind of data set: Inhibition of PARP2 (unknown origin) at 1 uM preincubated with compound for 10 mins followed by DNA and NAD+ addition and measured after 60 mins by chemiluminescence based envision reader analysis relative to control. The following applies: time 70.0 min.

By inhibition is commonly meant the change of the read-out against control, counted positive when it falls. As a reminder, the IC50 is the point on the concentration scale where inhibition reaches its midpoint. In general, CL/F refers to the apparent clearance, not corrected for the fraction that reaches the circulation. Broadly, the Cmax is the maximum level reached in the sampled fluid or tissue. By AUC(0-t) is commonly meant the area under the concentration-time curve up to a stated or last time point. A higher AUC(0-t) goes with high exposure. For orientation: half-life means the time in which the quantity being followed falls by half.

T1 sequence (P09874 whole entry): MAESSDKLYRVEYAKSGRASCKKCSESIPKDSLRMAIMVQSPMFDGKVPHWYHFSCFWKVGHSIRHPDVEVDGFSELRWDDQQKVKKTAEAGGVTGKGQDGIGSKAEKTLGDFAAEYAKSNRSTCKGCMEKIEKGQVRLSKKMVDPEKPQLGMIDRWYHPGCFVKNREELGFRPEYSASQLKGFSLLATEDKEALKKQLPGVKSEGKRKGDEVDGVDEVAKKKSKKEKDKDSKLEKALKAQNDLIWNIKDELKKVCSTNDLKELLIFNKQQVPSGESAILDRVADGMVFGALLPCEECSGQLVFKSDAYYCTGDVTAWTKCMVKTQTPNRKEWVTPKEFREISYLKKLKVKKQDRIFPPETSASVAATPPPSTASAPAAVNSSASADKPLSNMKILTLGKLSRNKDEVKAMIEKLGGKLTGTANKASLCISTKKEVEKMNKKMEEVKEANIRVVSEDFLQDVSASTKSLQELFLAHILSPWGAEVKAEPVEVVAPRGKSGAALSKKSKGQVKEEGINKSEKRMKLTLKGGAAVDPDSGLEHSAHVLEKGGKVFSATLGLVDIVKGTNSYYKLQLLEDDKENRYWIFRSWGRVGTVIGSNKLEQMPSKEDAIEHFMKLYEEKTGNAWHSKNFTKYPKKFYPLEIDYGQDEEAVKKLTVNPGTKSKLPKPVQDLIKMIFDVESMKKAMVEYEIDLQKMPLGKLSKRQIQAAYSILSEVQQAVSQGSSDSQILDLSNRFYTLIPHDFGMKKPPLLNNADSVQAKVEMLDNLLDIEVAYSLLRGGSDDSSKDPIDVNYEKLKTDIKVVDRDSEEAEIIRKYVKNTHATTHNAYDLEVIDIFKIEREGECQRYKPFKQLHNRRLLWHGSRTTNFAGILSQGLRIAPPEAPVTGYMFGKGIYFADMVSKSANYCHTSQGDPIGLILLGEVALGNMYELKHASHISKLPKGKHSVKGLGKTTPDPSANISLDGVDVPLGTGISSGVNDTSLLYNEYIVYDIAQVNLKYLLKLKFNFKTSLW

`CCc1cc2ncc(CN3CC=C(c4ncccc4C(=O)NC)CC3)cc2[nH]c1=O`: the inhibition in data set [1] came to 15%. In the data set with MDA-MB-436 [2], the inhibition at 0.1 µM worked out at 26.7%.
In the same order, the values of `CCc1cc2ncc(CN3CC=C(c4ccc(C#N)s4)CC3)cc2[nH]c1=O` are 46.2% and 45%.
In the same order, the values of `CCc1cc2ncc(CN3CC=C(c4ccc(OC)nc4C)CC3)cc2[nH]c1=O` are 40.9% and 24%.
Take `CCc1cc2ncc(CN3CC=C(c4ccncc4C#N)CC3)cc2[nH]c1=O`: the inhibition in data set [1] amounted to 13.7%. Besides, the inhibition at 0.1 µM in the data set on MDA-MB-436 [2] worked out at 9.8%.
On to `CCc1cc2ncc(CN3CC=C(c4cc(F)c(C#N)c(F)c4)CC3)cc2[nH]c1=O`, for which, in data set [1], the inhibition came out at 31.3%. The inhibition at 0.1 µM in the data set with MDA-MB-436 [2] was found to be 51.9%. Also, the IC50 in the data set with MDA-MB-436 [3] was found to be 16.3 nM.
Consider `CCc1cc2ncc(CN3CC=C(c4cc(F)c(C#N)cn4)CC3)cc2[nH]c1=O`, for which the values for the inhibition in data set [1] and in [10] were 88.6% and 87.4%, respectively. Besides, the CL/F in data set [4] is 1 mL/min/kg. In data set [5], this compound registered a peak concentration (Cmax) of 3020 ng/mL. Further, the half-maximal inhibitory concentration (IC50) came to 130 nM in data set [6], 0.28 nM in data set [8] and 2.8 nM with MDA-MB-436 [3]. Moreover, in data set [7], the AUC(0-t) at 96 h is 16400 ng·h/mL. The compound also showed a half-life in [9] of 5.26 h.
For the compound `CCc1cc2ncc(CN3CCN(c4ccc(C#N)cc4F)CC3)cc2[nH]c1=O`, the IC50 in the data set with MDA-MB-436 [3] is 4.1 nM.
In the case of `CCc1cc2ncc(CN3CC=C(c4cc(C)c(F)c(C)c4)CC3)cc2[nH]c1=O`, in data set [1], the inhibition is -3.8%. Further, the inhibition at 0.1 µM in the data set on MDA-MB-436 [2] turned out to be 23.6%.
With `CCc1cc2ncc(CN3CC=C(c4ccc(C)cc4F)CC3)cc2[nH]c1=O`, the inhibition in [1] came out at 61.7%; in data set [10] it was 75.4%. In addition, the inhibition at 0.1 µM with MDA-MB-436 [2] was 5%.
For the compound `CCc1cc2ncc(CN3CC=C(c4cnc(C#N)cn4)CC3)cc2[nH]c1=O`, the inhibition in [1] stood at 45.8%. The inhibition at 0.1 µM in the data set with MDA-MB-436 [2] was determined as 47.5%.
In the same order, the values of `CCc1cc2ncc(CN3CC=C(c4ccc(C(=O)NC)nc4N)CC3)cc2[nH]c1=O` are 27.2% and 19.5%.
On to `CCc1cc2ncc(CN3CC=C(c4ccc(C)c(F)c4)CC3)cc2[nH]c1=O`, for which the inhibition in data set [1] came out at 54.4%. Also, the inhibition at 0.1 µM in the data set on MDA-MB-436 [2] came to 28.2%.
As for `CCc1cc2ncc(CN3CC=C(c4ccc(C(F)(F)F)nc4)CC3)cc2[nH]c1=O`, the inhibition in data set [1] turned out to be 56.9%; in data set [10], 82.3%. Also, in the data set on MDA-MB-436 [2], the inhibition at 0.1 µM was -4.1%.
Consider `CCc1cc2ncc(CN3CC=C(c4ccc(C(=O)NC)c(F)c4F)CC3)cc2[nH]c1=O`, for which, in data set [1], the inhibition came out at 46.1%. Further, the inhibition at 0.1 µM in the data set with MDA-MB-436 [2] was determined as 16.1%.
In the case of `CCc1cc2ncc(CN3CCN(c4cc(F)c(C#N)cn4)CC3)cc2[nH]c1=O`, in [4], the apparent clearance CL/F is 1 mL/min/kg. The same compound yielded a Cmax in [5] of 2250 ng/mL. In data set [7], this compound returned an AUC(0-t) at 96 h of 16000 ng·h/mL. In data set [9], this compound gave a half-life of 6.3 h. In addition, the half-maximal inhibitory concentration (IC50) with MDA-MB-436 [3] worked out at 1.9 nM.
In the case of `CCc1cc2ncc(CN3CCN(c4ccc(C(=O)NC)nc4F)CC3)cc2[nH]c1=O`, the inhibition worked out at 95.2% in [1] and 93.8% in [10]. The values for the IC50 (in data set [6]; in [8]; with MDA-MB-436 [3]) were 88 nM, 0.65 nM and 2.8 nM, respectively.
Turning to `CCc1cc2ncc(CN3CC=C(c4c(F)cc(C#N)cc4F)CC3)cc2[nH]c1=O`, in data set [1], the inhibition was 10.5%. Besides, the inhibition at 0.1 µM with MDA-MB-436 [2] amounted to 16.3%.
As to `CCc1cc2ncc(CN3CC=C(c4ccc(C#N)cc4F)CC3)cc2[nH]c1=O`, the inhibition in data set [1] is 96.9%; in data set [10], 92.3%. Besides, the IC50 in [6] came out at 62 nM; in data set [8], 0.17 nM; in the data set on MDA-MB-436 [3] it was 5.3 nM.
As for `CCc1cc2ncc(CN3CC=C(c4ccc(N)nc4)CC3)cc2[nH]c1=O`, in data set [1], the inhibition is 10%. Further, the inhibition at 0.1 µM in the data set on MDA-MB-436 [2] worked out at 31.1%.
For `CCc1cc2ncc(CN3CC=C(c4ncc(C#N)cc4C)CC3)cc2[nH]c1=O`, the inhibition in data set [1] was 15.9%. Besides, in the data set on MDA-MB-436 [2], the inhibition at 0.1 µM is -10.9%.
As for `CCc1cc2ncc(CN3CC=C(c4ccc(C#N)cc4)CC3)cc2[nH]c1=O`, the inhibition in data set [1] was 75.6%; in [10], 91.7%. Also, in the data set on MDA-MB-436 [2], the inhibition at 0.1 µM was determined as 37.9%.
With `CNC(=O)c1ccc(N2CCN(Cc3cnc4cc(C)c(=O)[nH]c4c3)CC2)c(F)n1`, the inhibition in data set [1] is 75%; in data set [10], 98.3%. Besides, the IC50 in data set [6] is 19 nM; in data set [8], 0.32 nM; in the data set with MDA-MB-436 [3], 114 nM.
As for `CCc1cc2ncc(CN3CCN(c4ccc(C(=O)NC)nc4F)CC3)c(F)c2[nH]c1=O`, in the data set with MDA-MB-436 [3], the concentration for half-maximal inhibition (IC50) came to 43.1 nM.
Consider `CCc1cc2ncc(CN3CC=C(c4cccnc4N)CC3)cc2[nH]c1=O`, for which the inhibition in data set [1] is 56.5%. The inhibition at 0.1 µM in the data set with MDA-MB-436 [2] came out at 14.4%.
In the case of `CCc1cc2ncc(CN3CC=C(c4cnccc4C(=O)NC)CC3)cc2[nH]c1=O`, in data set [1], the inhibition is 7.4%. For the same compound, in the data set with MDA-MB-436 [2], the inhibition at 0.1 µM was 18.5%.
Regarding `CNC(=O)c1ccc(N2CCN(Cc3cnc4cc(C5CC5)c(=O)[nH]c4c3)CC2)c(F)n1`, the half-inhibitory concentration (IC50) with MDA-MB-436 [3] is 4.1 nM.
On the same count and under the same terms, as for `CCc1cc2ncc(CN3CCN(c4ccc([N+](=O)[O-])cc4F)CC3)cc2[nH]c1=O`, the figure is 1.8 nM.
Take `CCc1cc2ncc(CN3CC=C(c4ncccc4C#N)CC3)cc2[nH]c1=O`: in [1], the inhibition is -9.3%. In addition, the inhibition at 0.1 µM in the data set on MDA-MB-436 [2] amounted to 5.9%.
In the case of `CCc1cc2ncc(CN3CC=C(c4ccc([N+](=O)[O-])cc4F)CC3)cc2[nH]c1=O`, the values for the inhibition in data set [1] and in [10] were 72.1% and 98.1%, respectively. Further, the values for the IC50 (in data set [6]; in data set [8]; with MDA-MB-436 [3]) were 37 nM, 0.47 nM and 25.7 nM, respectively.
Take `CCc1nc2ccc(CN3CCN(c4ccc(C(=O)NC)nc4F)CC3)c(F)c2[nH]c1=O`: the IC50 in the data set with MDA-MB-436 [3] worked out at 87.1 nM.
As to `CCc1cc2ncc(CN3CC=C(c4cnc(F)c(F)c4)CC3)cc2[nH]c1=O`, the inhibition in data set [1] worked out at 72.3%; in data set [10], 77.3%. The inhibition at 0.1 µM with MDA-MB-436 [2] came out at 37.7%.
On to `CCc1cc2ncc(CN3CC=C(c4cc(F)c(C)c(F)c4)CC3)cc2[nH]c1=O`, for which, in [1], the inhibition worked out at 27.5%. For the same compound, in the data set with MDA-MB-436 [2], the inhibition at 0.1 µM came to 22.2%.
The like results for `CCc1cc2ncc(CN3CC=C(c4ccc(C#N)c(F)c4F)CC3)cc2[nH]c1=O` were, in that order, 54.7% and 45.1%.
Consider `CCc1cc2ncc(CN3CC=C(c4ccc(F)cn4)CC3)cc2[nH]c1=O`, for which the values for the inhibition in [1] and in data set [10] were 91.4% and 93.9%, respectively. Besides, the concentration for half-maximal inhibition (IC50) amounted to 65 nM in [6], 0.28 nM in data set [8] and 6.5 nM in the data set on MDA-MB-436 [3].
As to `CCc1cc2ncc(CN3CC=C(c4ccccc4C#N)CC3)cc2[nH]c1=O`, the inhibition in data set [1] came out at 51.6%. In the data set with MDA-MB-436 [2], the inhibition at 0.1 µM amounted to 44.8%.
The like results for `CCc1cc2ncc(CN3CC=C(c4ccc(F)c(C)c4)CC3)cc2[nH]c1=O` were, in that order, 46.6% and 30.2%.
The like results for `CCc1cc2ncc(CN3CC=C(c4cnc5ccnn5c4)CC3)cc2[nH]c1=O` were, in that order, 46.3% and 13.6%.
The like results for `CCc1cc2ncc(CN3CC=C(c4ccc(C(=O)NC)nc4OC)CC3)cc2[nH]c1=O` were, in that order, 38.8% and 31.3%.
In the case of `CCc1cc2ncc(CN3CC=C(c4cnc(C(=O)NC)nc4)CC3)cc2[nH]c1=O`, the inhibition in data set [1] turned out to be 47.1%. In addition, in the data set on MDA-MB-436 [2], the inhibition at 0.1 µM stood at 52.6%. In addition, the IC50 with MDA-MB-436 [3] is 29.1 nM.
As for `CCc1cc2ncc(CN3CC=C(c4ncc(C(=O)NC)nc4C)CC3)cc2[nH]c1=O`, the results for the inhibition in data set [1] and in [10] were 77.2% and 85.4%, respectively. The inhibition at 0.1 µM in the data set on MDA-MB-436 [2] came to 41.1%.

These data come from ChEMBL document CHEMBL6096703 (J Med Chem, 2025).
